Laboratory results from the supplement of paper PMC7645387.
± gives the standard deviation of the averaged measurements.

Legend:
Settings in all cases: treatment time: 6 days
HDFB [1] = experiment: cell viability relative to DMSO control; higher = less growth inhibition
Protocol: (§1)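 MCC cell lines (PeTa, MKL-1, MS-1, WaGa) and HDFB fibroblasts were treated for 6 days with serial dilutions (1e-11 to 1e-4 M) of single compounds in quadruplicate. Viability was read by CellTiter-Glo 2.0 and expressed as % of DMSO control.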

MKL-1 [2] = experiment: as above
Protocol: as §1

PeTa [3] = experiment: as above
Protocol: as §1

MS-1 = experiment: as above
Protocol: as §1

WaGa = experiment: as above
Protocol: as §1

HDFB [4] = experiment: growth inhibition relative to DMSO control (fraction); higher = stronger growth inhibition
Protocol: (§2)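 Drug combination matrices: GSK-LSD1 (0, 1, 10, 100 nM) was combined with a second epigenetic drug (0 to 10 uM) on MCC lines PeTa and MKL-1 and on HDFB fibroblasts for 6 days, in quadruplicate. Viability was read by CellTiter-Glo 2.0. The response is the fraction of growth inhibition relative to DMSO, as input to synergyfinder Bliss analysis.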

MKL-1 [5] = experiment: as above
Protocol: as §2

PeTa [6] = experiment: as above
Protocol: as §2

O=C(NC[C@H](O)CN1CCc2ccccc2C1)c1ccnc(NC2CCC2)c1 [GSK591]
cell viability [%]
Settings	log10 concentration (M): -4	log10 concentration (M): -5	log10 concentration (M): -6	log10 concentration (M): -7	log10 concentration (M): -8	log10 concentration (M): -9	log10 concentration (M): -10	log10 concentration (M): -11
HDFB [1]	91.5 ± 3.5	115 ± 7.4	112 ± 5.1	117 ± 5.5	113 ± 3.1	104 ± 2.8	104 ± 2.1	101 ± 2
MKL-1 [2]	37.2 ± 2.9	64.4 ± 12	72.4 ± 13	79.2 ± 16	84.2 ± 21	98.2 ± 17	111 ± 28	101 ± 22
PeTa [3]	26.2 ± 2.9	80.4 ± 3.4	93.2 ± 3.1	103 ± 3.5	107 ± 7.2	108 ± 6.4	106 ± 7.8	100 ± 7.8

Cc1sc2c(c1C)C(c1ccc(Cl)cc1)=N[C@@H](CC(=O)OC(C)(C)C)c1nnc(C)n1-2 [(+)-JQ1]
cell viability [%]
Settings	log10 concentration (M): -4	log10 concentration (M): -5	log10 concentration (M): -6	log10 concentration (M): -7	log10 concentration (M): -8	log10 concentration (M): -9	log10 concentration (M): -10	log10 concentration (M): -11
HDFB [1]	0.0326 ± 0.017	31.7 ± 3.8	52 ± 8.2	78.7 ± 1.5	94.8 ± 1.7	106 ± 11	110 ± 14	99 ± 7.9
MKL-1 [2]	0.00849 ± 0.0057	0.0389 ± 0.0064	0.0944 ± 0.014	20.7 ± 1.3	66.8 ± 11	89.2 ± 19	94.1 ± 1.5	93.9 ± 6.4
PeTa [3]	0.0148 ± 0.0097	3.47 ± 0.2	7.04 ± 0.4	21.7 ± 2.3	94.3 ± 7.1	96.7 ± 12	87.4 ± 18	100 ± 2.9

CN1CCN(c2ccc(-c3cccc(CN4CCOCC4)c3)cc2NC(=O)c2c[nH]c(=O)cc2C(F)(F)F)CC1 [OICR9429]
cell viability [%]
Settings	log10 concentration (M): -4	log10 concentration (M): -5	log10 concentration (M): -6	log10 concentration (M): -7	log10 concentration (M): -8	log10 concentration (M): -9	log10 concentration (M): -10	log10 concentration (M): -11
HDFB [1]	42.7 ± 12	83.7 ± 5.2	97.6 ± 5.7	105 ± 3.1	117 ± 20	113 ± 7.9	108 ± 4.6	104 ± 4.1
MKL-1 [2]	0.438 ± 0.44	57.6 ± 3.4	79.2 ± 7.5	87.1 ± 17	80.2 ± 6.2	85.8 ± 12	89.9 ± 12	85.7 ± 13
PeTa [3]	49.1 ± 85	96.8 ± 45	103 ± 21	111 ± 21	119 ± 29	126 ± 27	122 ± 21	126 ± 25

N[C@H]1CC[C@H](N[C@@H]2C[C@H]2c2ccccc2)CC1 [ORY-1001]
cell viability [%]
Settings	log10 concentration (M): -5	log10 concentration (M): -6	log10 concentration (M): -7	log10 concentration (M): -8	log10 concentration (M): -9	log10 concentration (M): -10	log10 concentration (M): -11
HDFB [1]	95.7 ± 2.2	97.6 ± 3.9	94.1 ± 2.7	95.1 ± 2.2	96.1 ± 1.3	99.58 ± 0.98	100 ± 1.3
MKL-1 [2]	39.8 ± 5.9	44.9 ± 3.6	46.4 ± 4.5	62.8 ± 28	81 ± 16	102 ± 3.2	100 ± 4.5
MS-1	47.3 ± 2.2	56.8 ± 1.2	58.9 ± 5.5	57.2 ± 2.4	58.8 ± 1.9	104 ± 3	104 ± 16
PeTa [3]	22.3 ± 2.8	18.2 ± 3.2	17.2 ± 0.89	16.3 ± 1.2	47.5 ± 17	102 ± 6.4	97.6 ± 4.8
WaGa	35.1 ± 2.3	38.3 ± 4.8	39.7 ± 5.1	44 ± 5.8	63.3 ± 1.2	91.5 ± 1.2	99.1 ± 0.86

Nc1ccccc1NC(=O)c1ccc(CNC(=O)OCc2cccnc2)cc1 [Entinostat]
cell viability [%]
Settings	log10 concentration (M): -4	log10 concentration (M): -5	log10 concentration (M): -6	log10 concentration (M): -7	log10 concentration (M): -8	log10 concentration (M): -9	log10 concentration (M): -10	log10 concentration (M): -11
HDFB [1]	0.192 ± 0.057	11 ± 1.8	33.8 ± 3.8	94.1 ± 3.7	102 ± 2.1	102 ± 2.9	104 ± 4.2	104 ± 5.3
MKL-1 [2]	0.0104 ± 0.0078	0.0238 ± 0.013	0.0511 ± 0.011	75 ± 2.7	102 ± 2.8	102.6 ± 0.8	101 ± 2.3	102 ± 1.3
PeTa [3]	0.0531 ± 0.016	0.0605 ± 0.051	0.0805 ± 0.058	50.9 ± 3.8	94.9 ± 2.8	98.1 ± 5.3	102 ± 2	108 ± 4.7

Cc1cc2c(cc1N1C(=O)c3cccc4c(CCCO)ccc(c34)C1=O)n(C)c(=O)n2C [BAY299]
cell viability [%]
Settings	log10 concentration (M): -4	log10 concentration (M): -5	log10 concentration (M): -6	log10 concentration (M): -7	log10 concentration (M): -8	log10 concentration (M): -9	log10 concentration (M): -10	log10 concentration (M): -11
HDFB [1]	31.2 ± 1.8	78.5 ± 3.7	74.1 ± 2.2	92.1 ± 3.5	100 ± 12	97.5 ± 6.5	100 ± 9.7	99.3 ± 4
MKL-1 [2]	0.0297 ± 0.015	0.557 ± 0.05	20.6 ± 2.8	102 ± 15	88.4 ± 4.3	111 ± 13	101 ± 15	92.3 ± 18
PeTa [3]	0.141 ± 0.02	2.01 ± 0.19	37.3 ± 4.9	88.5 ± 20	92.1 ± 19	94.4 ± 17	103 ± 18	95.8 ± 12

c1ccc([C@@H]2C[C@H]2NC2CCNCC2)cc1 [GSK-LSD1] + CCOC(=O)NCCCC(=O)NCCc1ccccc1 [Santacruzamate A]
growth inhibition
Settings	partner concentration 0 nM	partner concentration 1 nM	partner concentration 10 nM	partner concentration 100 nM	partner concentration 1000 nM	partner concentration 10000 nM
HDFB [4], GSK-LSD1 concentration 0 nM	–	0.0152	0.0273	-0.00476	0.025	-0.0257
HDFB [4], GSK-LSD1 concentration 1 nM	0.0274	0.0683	0.0641	0.0608	0.0549	0.0385
HDFB [4], GSK-LSD1 concentration 10 nM	0.103	0.132	0.111	0.109	0.0931	0.0944
HDFB [4], GSK-LSD1 concentration 100 nM	0.209	0.215	0.245	0.258	0.258	0.248
MKL-1 [5], GSK-LSD1 concentration 0 nM	–	0.00478	-0.00416	-0.0025	-0.0148	-0.0477
MKL-1 [5], GSK-LSD1 concentration 1 nM	0.0491	0.0627	0.0768	0.068	0.072	0.014
MKL-1 [5], GSK-LSD1 concentration 10 nM	0.266	0.253	0.298	0.281	0.242	0.184
MKL-1 [5], GSK-LSD1 concentration 100 nM	0.748	0.763	0.741	0.763	0.696	0.755
PeTa [6], GSK-LSD1 concentration 0 nM	–	-0.00232	0.00932	0.0171	-0.000556	-0.0248
PeTa [6], GSK-LSD1 concentration 1 nM	0.0188	0.0434	0.0394	0.0494	0.0221	-0.00432
PeTa [6], GSK-LSD1 concentration 10 nM	0.412	0.412	0.418	0.432	0.466	0.403
PeTa [6], GSK-LSD1 concentration 100 nM	0.786	0.751	0.762	0.748	0.793	0.814

c1ccc([C@@H]2C[C@H]2NC2CCNCC2)cc1 [GSK-LSD1]
cell viability [%]
Settings	log10 concentration (M): -5	log10 concentration (M): -6	log10 concentration (M): -7	log10 concentration (M): -8	log10 concentration (M): -9	log10 concentration (M): -10	log10 concentration (M): -11
HDFB [1]	97.43 ± 0.88	98.5 ± 1.4	98.6 ± 3.9	99.4 ± 4.2	100 ± 1.2	105 ± 2.1	103 ± 1.1
MKL-1 [2]	56.1 ± 5.8	62 ± 1.4	60.1 ± 3.4	67.2 ± 1.8	87.9 ± 6.7	98.1 ± 2.9	98.7 ± 1.5
MS-1	45.9 ± 1.6	45.4 ± 3.8	47.6 ± 1.6	47.1 ± 3.4	74.9 ± 5.8	93.1 ± 2.9	94.7 ± 3.8
PeTa [3]	28.8 ± 1.3	23.1 ± 2.4	21.3 ± 0.88	28.1 ± 0.85	67.8 ± 4.2	101 ± 5.4	99.1 ± 7.4
WaGa	45 ± 5.1	49.8 ± 2.1	44.1 ± 5.5	55.4 ± 1.8	76.6 ± 5.2	95.6 ± 3	97.6 ± 6.1

CCOC(=O)NCCCC(=O)NCCc1ccccc1 [Santacruzamate A]
cell viability [%]
Settings	log10 concentration (M): -4	log10 concentration (M): -5	log10 concentration (M): -6	log10 concentration (M): -7	log10 concentration (M): -8	log10 concentration (M): -9	log10 concentration (M): -10	log10 concentration (M): -11
HDFB [1]	41.6 ± 3.4	103 ± 3.4	103 ± 3.5	99.8 ± 4.6	101 ± 3.4	101 ± 6.3	99.3 ± 7.7	100 ± 9.2
MKL-1 [2]	34.9 ± 2.9	106 ± 1.2	105 ± 1.5	104 ± 1.9	103 ± 1.4	102 ± 3.4	99.3 ± 7.4	100 ± 1.6
PeTa [3]	45.5 ± 14	104 ± 5.5	105 ± 2.4	99.9 ± 11	105 ± 1.4	103 ± 1.9	105 ± 3.6	103 ± 2.8
